Earlier results as cited in US8636985B2, “Functional formulation in chewing gum” (priority 2010, dated 2014).

Conditions: several experimental models

## CC1=C(CO)C(=O)O[C@@H]([C@@H](C)[C@H]2CC[C@H]3[C@@H]4C[C@H]5O[C@]56[C@@H](O)C=CC(=O)[C@]6(C)[C@H]4CC[C@]23C)C1 [Withaferin A]
  anti-inflammatory and antiarthritic properties: anti-inflammatory and antiarthritic properties
